Measurements taken from patent US11319324B2, “Pyrazolo-pyrrolo-pyrimidine-dione derivatives as P2X3 inhibitors” (Bayer Aktiengesellschaft, priority 2017, dated 2022).

Legend:
Assay type in all cases: cell-based
human P2X3 receptor [1] = molecular target: T1, human P2X3 receptor (Homo sapiens, UniProt P56373); test: Intracellular calcium measurement, antagonist activity at human P2X3 receptors (hP2X3 1321N1), Fluo8; parameters: expressed in transfected cells; host or cells: human astrocytoma 1321N1 (1312N1 [sic]); settings: column 3); 1321N1 cells, human P2X3, Fluo8, agonist ATP at EC50
T1 sequence (P56373 1-397): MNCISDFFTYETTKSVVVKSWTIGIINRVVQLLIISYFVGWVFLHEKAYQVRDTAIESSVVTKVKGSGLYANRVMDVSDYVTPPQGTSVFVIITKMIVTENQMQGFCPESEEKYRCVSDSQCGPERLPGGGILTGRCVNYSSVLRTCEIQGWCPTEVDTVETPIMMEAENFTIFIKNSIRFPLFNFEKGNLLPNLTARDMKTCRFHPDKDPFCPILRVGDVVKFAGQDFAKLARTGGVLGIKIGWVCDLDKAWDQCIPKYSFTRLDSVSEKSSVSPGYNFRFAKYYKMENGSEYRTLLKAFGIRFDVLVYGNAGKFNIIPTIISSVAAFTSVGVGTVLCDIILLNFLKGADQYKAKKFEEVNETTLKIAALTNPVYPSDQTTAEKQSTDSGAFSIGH
Protocol: (§1) 3) And 4) Intracellular Calcium Measurement to Compare Antagonist Activity at Human P2X3 Receptors (hP2X3 1321N1) and at Human P2X2/3 Receptors (hP2X23 1321N1)
(§2) The comparison of antagonistic activity at the P2X3 versus the P2X2/3 receptor of the compounds of the invention were performed by use of recombinant cell lines. These cell lines derived originally from the human astrocytoma cell line […] (Macintyre E H, Pontén J, Vatter A E. Acta Pathol Microbiol Scand A. 1972; 80(2):267-83). The cell lines are stably transfected with the human P2X3 receptor forming homotrimeric P2X3 receptors or are co-transfected with P2X2 and P2X3 forming heterotrimeric P2X2/3 receptors. Stimulation of the receptors with the agonist ATP leads to a conformational change of the receptors and influx of extracellular calcium ions through the open ion channel. The cytoplasmatic calcium transient is detected via the calcium sensitive dye Fluo8. The strength of Fluo8 fluorescence signal corresponds to the level of receptor activation. An inhibitor would decrease the signal depending on its potency and concentration. Fluorescence was measured by use of a suitable fluorescence reader.
(§3) On the day before the assay, the cells were plated in culture medium (DMEM high glucose, 10% FCS, 1% MEM non-essential amino acids, 4 mM Glutamax) in 384-well poly-D-lysine coated microtiter plates and kept in a cell incubator (96% humidity, 5% v/v CO2, 37° C.). On the day of the assay medium was exchanged by Fluo8 containing buffer and incubated for 60 minutes. Test compounds were added at various concentrations and plates were incubated for 10 minutes. In the fluorescence reader a 3 seconds baseline measurement was performed and the agonist ATP was applied at EC50 concentration of the respective receptor during constant fluorescence measurement for 120 seconds.

human P2X3 receptor [2] = molecular target: T1, human P2X3 receptor; test: Intracellular calcium measurement to assess antagonist activity at human P2X3 receptors (hP2X3 CHO), photina luminescence; parameters: expressed in transfected cells; host or cells: Chinese hamster ovary (CHO) cells; settings: column 2), CHO cells, agonist α,β-methylene-ATP at EC50
Summary of the method: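 Antagonism read as lowered photina luminescence after agonist stimulation in recombinant hP2X3/photina CHO cells. Cells seeded one day earlier (30 °C) and reconstituted with 5 μg/ml coelenterazine in 2 mM Ca-tyrode buffer for 3 h at 37 °C before measurement.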

human P2X2/3 receptors = molecular target: T2, human P2X2/3 receptors (Homo sapiens, UniProt P56373+Q9UBL9); test: Intracellular calcium measurement, antagonist activity at human P2X2/3 receptors (hP2X23 1321N1), Fluo8; settings: for IC50: column 4); 1321N1 cells, human P2X2/3, Fluo8, agonist ATP at EC50; read-out: 4) hP2X2/3 IC50 [nM] (1321N1); for hP2X23/hP2X3* Selectivity (1321N1): ratio of column 4) hP2X2/3 to column 3) hP2X3, 1321N1
T2 construct: expressed in transfected cells; host or cells: human astrocytoma 1321N1 (1312N1 [sic])
T2 sequence (P56373 1-397): T1 sequence (P56373 1-397)
T2 sequence (Q9UBL9 1-471): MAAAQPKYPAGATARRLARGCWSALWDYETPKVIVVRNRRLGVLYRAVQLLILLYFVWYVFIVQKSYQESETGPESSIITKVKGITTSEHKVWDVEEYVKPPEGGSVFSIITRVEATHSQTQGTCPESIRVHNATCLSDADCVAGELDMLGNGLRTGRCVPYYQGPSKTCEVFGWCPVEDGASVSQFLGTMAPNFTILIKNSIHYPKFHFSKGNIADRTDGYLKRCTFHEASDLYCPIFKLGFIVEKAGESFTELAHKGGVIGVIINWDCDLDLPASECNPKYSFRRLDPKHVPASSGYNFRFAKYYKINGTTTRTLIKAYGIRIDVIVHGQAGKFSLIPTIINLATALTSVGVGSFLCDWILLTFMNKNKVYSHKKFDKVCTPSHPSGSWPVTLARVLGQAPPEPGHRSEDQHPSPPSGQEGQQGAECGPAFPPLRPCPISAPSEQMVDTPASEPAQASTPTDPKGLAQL
Protocol: as §1, §2, §3

IC50 (human P2X3 receptor [1])	IC50 (human P2X3 receptor [2])	IC50 (human P2X2/3 receptors)	hP2X23/hP2X3* Selectivity (1321N1) (human P2X2/3 receptors)	Compound
81 nM	114 nM	> 22500 nM	>278	COC[C@H](C)N1Cc2c(n(CC(=O)Nc3ccc(F)cn3)c3cc(Cl)nn3c2=O)C1=O [Example 102]
27 nM	39 nM	> 32000 nM	>1185	CC(C)N1Cc2c(n(CC(=O)Nc3ccc(F)cn3)c3cc(C4CCS(=O)(=O)CC4)nn3c2=O)C1=O [Example 229, 2-[2-(1,1-dioxo-1lambda^6-thian-4-yl)-5,8-dioxo-6-(propan-2-yl)-5,6,7,8-tetrahydro-4H-pyrazolo[1,5-a]pyrrolo[3,4-d]pyrimidin-4-yl]-N-(5-fluoropyridin-2-yl)acetamide]
8 nM	6 nM	2350 nM	295	CC(C)Cc1cc2n(CC(=O)Nc3ccc(F)cn3)c3c(c(=O)n2n1)CN(C1CCCC1)C3=O [Example 93]
6 nM	10 nM	2350 nM	408	COC[C@H](C)N1Cc2c(n(CC(=O)Nc3ccc(F)cn3)c3cc(-c4ccnc(C)c4)nn3c2=O)C1=O [Example 153]
675 nM	650 nM	> 32000 nM	>47	CCc1cc2n(CC(=O)Nc3ccc(F)cn3)c3c(c(=O)n2n1)CN(C1CCNC1)C3=O (single isomer, unassigned) [Example 278, 2-{2-ethyl-5,8-dioxo-6-[pyrrolidin-3-yl]-5,6,7,8-tetrahydro-4H-pyrazolo[1,5-a]pyrrolo[3,4-d]pyrimidin-4-yl}-N-(5-fluoropyridin-2-yl)acetamide]
16 nM	10 nM	5900 nM	361	COC[C@H](C)N1Cc2c(n(CC(=O)Nc3ccc(F)cn3)c3cc(C(=O)NCC4CC4)nn3c2=O)C1=O [Example 190]
25 nM	35 nM	4700 nM	191	CC(=O)N1CCC(c2cc3n(CC(=O)Nc4ccc(F)cn4)c4c(c(=O)n3n2)CN(C(C)C)C4=O)CC1 [Example 263, 2-[2-(1-acetylpiperidin-4-yl)-5,8-dioxo-6-(propan-2-yl)-5,6,7,8-tetrahydro-4H-pyrazolo[1,5-a]pyrrolo[3,4-d]pyrimidin-4-yl]-N-(5-fluoropyridin-2-yl)acetamide]
470 nM	533 nM	> 32000 nM	>68	CCc1cc2n(CC(=O)Nc3ccc(F)cn3)c3c(c(=O)n2n1)CN(C1CCN(C(C)=O)C1)C3=O (stereo not drawn) [Example 265]
39 nM	41 nM	5550 nM	142	CCc1cc2n(CC(=O)Nc3ccc(F)cn3)c3c(c(=O)n2n1)CN(C[C@@H]1COCCN1CCC(F)(F)F)C3=O [Example 261]
68 nM	88 nM	7700 nM	114	CC(C)N1Cc2c(n(CC(=O)Nc3ccc(F)cn3)c3cc(NCCOCc4ccccc4)nn3c2=O)C1=O [Example 176, 2-[2-{[2-(benzyloxy)ethyl]amino}-5,8-dioxo-6-(propan-2-yl)-5,6,7,8-tetrahydro-4H-pyrazolo[1,5-a]pyrrolo[3,4-d]pyrimidin-4-yl]-N-(5-fluoropyridin-2-yl)acetamide]
57 nM	54 nM	660 nM	12	CCc1cc2n(CC(=O)Nc3ccc(F)cn3)c3c(c(=O)n2n1)CN(C[C@H]1CN(C2CCC2)CCO1)C3=O [Example 257]
18 nM	36 nM	2300 nM	128	CC(C)N1Cc2c(n(CC(=O)Nc3ccc(F)cn3)c3cc(NC4CC4)nn3c2=O)C1=O [Example 167, 2-[2-(cyclopropylamino)-5,8-dioxo-6-(propan-2-yl)-5,6,7,8-tetrahydro-4H-pyrazolo[1,5-a]pyrrolo[3,4-d]pyrimidin-4-yl]-N-(5-fluoropyridin-2-yl)acetamide]
